This assay concerns the target human full-length MKNK1 (Homo sapiens (Human), UniProt Q9BUB5, T344D). As to the kind of experiment: MKNK1 kinase high ATP assay (TR-FRET). The assay is classed as biochemical. The conditions noted are these: 2 mM ATP, 15 min preincubation with enzyme, GST-MKNK1 (T344D). Summed up:
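GST-tagged full-length human MKNK1 (1-424, T344D, baculovirus-expressed) preincubated 15 min at 22 °C with compound, then reacted 30 min at 22 °C with 2 mM ATP and 0.06 μM biotinylated peptide (final) in HEPES pH 7.5. Phospho-substrate by TR-FRET (665/622 nm ratio), normalised to no-inhibitor and no-enzyme controls.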

Where a name gives a salt, the structure may show the parent alone.

Chain of human full-length MKNK1 (Q9BUB5 other isoform, or with tags, fused parts or gaps T344D): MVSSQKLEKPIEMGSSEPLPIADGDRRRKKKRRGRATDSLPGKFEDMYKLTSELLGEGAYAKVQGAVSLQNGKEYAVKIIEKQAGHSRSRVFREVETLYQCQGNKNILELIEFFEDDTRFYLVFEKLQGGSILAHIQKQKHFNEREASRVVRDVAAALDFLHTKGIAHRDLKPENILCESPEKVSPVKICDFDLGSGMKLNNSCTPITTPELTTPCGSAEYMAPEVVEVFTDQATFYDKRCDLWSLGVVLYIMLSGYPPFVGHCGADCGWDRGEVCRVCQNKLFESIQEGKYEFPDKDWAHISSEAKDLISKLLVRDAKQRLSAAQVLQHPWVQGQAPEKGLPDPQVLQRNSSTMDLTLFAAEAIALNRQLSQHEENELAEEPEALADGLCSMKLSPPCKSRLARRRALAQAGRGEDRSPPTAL

For the compound `Cc1cc(Nc2ncnc3sc(C(=O)N4C[C@@H]5C[C@H]4CN5C)cc23)c(=O)n2c1C(=O)NC21CCCCC1` [Example 43, 8′-Methyl-6′-[(6-{[(1S,4S)-5-methyl-2,5-diazabicyclo[2.2.1]hept-2-yl]carbonyl}thieno[2,3-d]pyrimidin-4-yl)amino]-2′H-spiro[cyclohexane-1,3′-imidazo[1,5-a]pyridine]-1′,5′-dione], the IC50 (in general, the concentration at which inhibition is half-maximal) was 2.9 nM.

Regarding `Cc1cc(Nc2ncnc3[nH]ccc23)c(=O)n2c1C(=O)NC21CCS(=O)(=O)CC1` [Example 198, 8-methyl-6-(7H-pyrrolo[2,3-d]pyrimidin-4-ylamino)-2′,3′,5′,6′-tetrahydro-2H-spiro[imidazo[1,5-a]pyridine-3,4′-thiopyran]-1,5-dione 1′,1′-dioxide], half-maximal inhibition (IC50) was put at 1.1 nM.

In the case of `Cc1cc(Nc2ncnc3cc(Cl)ccc23)c(=O)n2c1C(=O)NC21CCCCC1` [Example 108, 6′-[(7-Chloroquinazolin-4-yl)amino]-8′-methyl-2′H-spiro[cyclohexane-1,3′-imidazo[1,5-a]pyridine]-1′,5′-dione], the IC50 came out at 16.5 nM.

As to `Cc1cc(Nc2ncnc3[nH]ccc23)c(=O)n2c1C(=O)NC21CSC1` [Example 178, 8-methyl-6-[(7H-pyrrolo[2,3-d]pyrimidin-4-yl)amino]-2H-spiro[imidazo[1,5-a]pyridine-3,3′-thietane]-1,5-dione], the IC50 is 1.1 nM.

Turning to `Cc1cc(Nc2ncnc3[nH]cnc23)c(=O)n2c1C(=O)NC2(C)C` [Example 134, 3,3,8-Trimethyl-6-(9H-purin-6-ylamino)-2,3-dihydroimidazo[1,5-a]pyridine-1,5-dione], inhibition was half-maximal at 5.8 nM (IC50).

Take `Cc1cc(Nc2ncnc3[nH]ccc23)c(=O)n2c1C(=O)NC21CCC(F)(F)CC1` [Example 92, 4,4-Difluoro-8′-methyl-6′-(7H-pyrrolo[2,3-d]pyrimidin-4-ylamino)-2′H-spiro[cyclohexane-1,3′-imidazo[1,5-a]pyridine]-1′,5′-dione hydrochloride]: half-maximal inhibition (hydrochloride) (IC50) was put at 1.2 nM.

As to `Cc1cc(Nc2ncnc3c2CN(S(=O)(=O)C(F)(F)F)C3)c(=O)n2c1C(=O)NC21CCCCC1` [Example 72, 8′-methyl-6′-({6-[(trifluoromethyl)sulfonyl]-6,7-dihydro-5H-pyrrolo[3,4-d]pyrimidin-4-yl}amino)-2′H-spiro[cyclohexane-1,3′-imidazo[1,5-a]pyridine]-1′,5′-dione], 30.4 nM corresponded to half-maximal inhibition (IC50).

`Cc1cc(Nc2ncnc3ccc(Cl)cc23)c(=O)n2c1C(=O)NC21CCCCC1` [Example 46, 6′-[(6-Chloroquinazolin-4-yl)amino]-8′-methyl-2′H-spiro[cyclohexane-1,3′-imidazo[1,5-a]pyridine]-1′,5′-dione] had an IC50 of 4.1 nM.

`Cc1cc(Nc2ncnc3sc(C(=O)O)c(C)c23)c(=O)n2c1C(=O)NC21CCC1` [Example 169] displayed an IC50 of 15.7 nM.

Take `Cc1cc(Nc2ncnc3c2CN(C(=O)OC(C)(C)C)C3)c(=O)n2c1C(=O)NC21CCCCC1` [Example 35, tert-Butyl 4-[(8′-methyl-1′,5′-dioxo-1′,5′-dihydro-2′H-spiro[cyclohexane-1,3′-imidazo[1,5-a]pyridin]-6′-yl)amino]-5,7-dihydro-6H-pyrrolo[3,4-d]pyrimidine-6-carboxylate]: the 50% inhibitory concentration (IC50) stood at 4.1 nM.

With `Cc1cc(Nc2ncnc3c2CN(C(=O)OC(C)(C)C)C3)c(=O)n2c1C(=O)NC21CCC(F)(F)CC1` [Example 104, tert-Butyl 4-[(4,4-difluoro-8′-methyl-1′,5′-dioxo-1′,5′-dihydro-2′H-spiro[cyclohexane-1,3′-imidazo[1,5-a]pyridin]-6′-yl)amino]-5,7-dihydro-6H-pyrrolo[3,4-d]pyrimidine-6-carboxylate], half-maximal inhibition (IC50) required 30.2 nM.

Take `Cc1cc(Nc2ncnc3sc(C(=O)N4CC(C#N)C4)cc23)c(=O)n2c1C(=O)NC21CCC(F)(F)CC1` [Example 85, 1-({4-[(4,4-Difluoro-8′-methyl-1′,5′-dioxo-1′,5′-dihydro-2′H-spiro[cyclohexane-1,3′-imidazo[1,5-a]pyridin]-6′-yl)amino]thieno[2,3-d]pyrimidin-6-yl}carbonyl)azetidine-3-carbonitrile]: half-maximal inhibition (IC50) required 25.2 nM.

Take `Cc1cc(Nc2ncnc3c2CNC3)c(=O)n2c1C(=O)NC21CCC(F)(F)CC1` [Example 125, 6′-(6,7-Dihydro-5H-pyrrolo[3,4-d]pyrimidin-4-ylamino)-4,4-difluoro-8′-methyl-2′H-spiro[cyclohexane-1,3′-imidazo[1,5-a]pyridine]-1′,5′-dione]: half-maximal inhibition (IC50) was put at 46.5 nM.

As to `Cc1cc(Nc2ncnc(NC(=O)C3CC3)n2)c(=O)n2c1C(=O)NC21CCC1` [Example 146, N-{4-[(8′-Methyl-1′,5′-dioxo-1′,5′-dihydro-2′H-spiro[cyclobutane-1,3′-imidazo[1,5-a]pyridin]-6′-yl)amino]-1,3,5-triazin-2-yl}cyclopropanecarboxamide], it took 8.2 nM to reach half-maximal inhibition (IC50).

In the case of `Cc1cc(Nc2ncnc3cccc(C)c23)c(=O)n2c1C(=O)N[C@]21CC[C@@](O)(C(F)(F)C(F)(F)F)CC1` [Example 191, (cis)-4-hydroxy-8′-methyl-6′-[(5-methylquinazolin-4-yl)amino]-4-(pentafluoroethyl)-2′H-spiro[cyclohexane-1,3′-imidazo[1,5-a]pyridine]-1′,5′-dione], the IC50 stood at 67.8 nM.

`Cc1cc(Nc2ncnc3[nH]cnc23)c(=O)n2c1C(=O)NC21CCCCC1` [Example 24, 8′-methyl-6′-(9H-purin-6-ylamino)-2′H-spiro[cyclohexane-1,3′-imidazo[1,5-a]pyridine]-1′,5′-dione] gave an IC50 of 1.5 nM.

`Cc1cc(Nc2ncnc3sc(C(=O)N4CCC(N(C)C)CC4)cc23)c(=O)n2c1C(=O)NC21CCC(F)(F)CC1` [Example 87, 6′-[(6-{[4-(Dimethylamino)piperidin-1-yl]carbonyl}thieno[2,3-d]pyrimidin-4-yl)amino]-4,4-difluoro-8′-methyl-2′H-spiro[cyclohexane-1,3′-imidazo[1,5-a]pyridine]-1′,5′-dione] had an IC50 of 23.1 nM.

On to `Cc1cc(Nc2ncnc3sc(C(=O)O)c(C)c23)c(=O)n2c1C(=O)NC2(C)C` [Example 145, 5-Methyl-4-[(3,3,8-trimethyl-1,5-dioxo-1,2,3,5-tetrahydroimidazo[1,5-a]pyridin-6-yl)amino]thieno[2,3-d]pyrimidine-6-carboxylic acid], for which 115 nM corresponded to half-maximal inhibition (IC50).

Compound `Cc1cc(Nc2ncnc(NC(=O)C3CC3)n2)c(=O)n2c1C(=O)NC2(C)C` [Example 40, N-[4-[(3,3,8-Trimethyl-1,5-dioxo-1,2,3,5-tetrahydroimidazo[1,5-a]pyridin-6-yl)amino]-1,3,5-triazin-2-yl]cyclopropanecarboxamide] came in with a half-maximal inhibitory concentration (IC50) of 20.7 nM.

`Cc1cc(Nc2ncnc3[nH]ccc23)c(=O)n2c1C(=O)NC21CCC(F)(F)CC1` [Example 90, 4,4-Difluoro-8′-methyl-6′-(7H-pyrrolo[2,3-d]pyrimidin-4-ylamino)-2′H-spiro[cyclohexane-1,3′-imidazo[1,5-a]pyridine]-1′,5′-dione] came in with an IC50 of 0.7 nM.

`Cc1cc(Nc2ncnc3sccc23)c(=O)n2c1C(=O)NC21CCC(O)(C(F)(F)F)CC1` (stereo not drawn) [Example 130, 4-Hydroxy-8′-methyl-6′-(thieno[2,3-d]pyrimidin-4-ylamino)-4-(trifluoromethyl)-2′H-spiro[cyclohexane-1,3′-imidazo[1,5-a]pyridine]-1′,5′-dione] displayed an IC50 of 7.9 nM.

For the origin of these results see patent publication US11311520B2, “Substituted dihydroimidazopyridinediones as MKNK1 and MKNK2 inhibitors” (Bayer Pharma Aktiengesellschaft, priority 2017, dated 2022).
